For assay [1], the target named is T4moF, bacterial oxidoreductase (Ectopseudomonas mendocina, UniProt Q03304). The assay can be described thus: reduction of MRF followed at […] nm, anaerobic. Format: biochemical. The conditions noted are these: electron acceptor MRF; 4 nM T4moF; 1 mM NADH.
The target in assay [2] is human homolog of mouse Rieske-type ferredoxin (HRF) (Homo sapiens, UniProt Q8TAC1). The assay is described as follows: optical absorption spectrum of purified protein. Format: binding. The conditions noted are these: bound as purified.

The text below walks through data of paper PMC2631127 (Acta Crystallographica Section D: Biological Crystallography, 2008).

human homolog of mouse Rieske-type ferredoxin (HRF), sequence (Q8TAC1 2-157 limits assumed): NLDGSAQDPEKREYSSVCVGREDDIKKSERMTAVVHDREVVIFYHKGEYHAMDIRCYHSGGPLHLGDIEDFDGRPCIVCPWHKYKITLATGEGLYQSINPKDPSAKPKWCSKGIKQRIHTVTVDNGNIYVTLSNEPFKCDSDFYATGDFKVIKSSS
T4moF, bacterial oxidoreductase, sequence (Q03304 whole entry): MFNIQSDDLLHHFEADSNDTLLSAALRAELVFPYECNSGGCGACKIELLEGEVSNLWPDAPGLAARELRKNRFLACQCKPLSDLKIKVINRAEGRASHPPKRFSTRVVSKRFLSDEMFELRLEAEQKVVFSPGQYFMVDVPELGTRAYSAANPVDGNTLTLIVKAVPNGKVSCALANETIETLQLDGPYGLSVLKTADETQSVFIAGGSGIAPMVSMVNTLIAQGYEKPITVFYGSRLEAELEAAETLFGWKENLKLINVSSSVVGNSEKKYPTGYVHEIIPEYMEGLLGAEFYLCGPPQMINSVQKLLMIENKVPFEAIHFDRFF

With `NC(=O)C1=CN([C@@H]2O[C@H](COP(=O)(O)OP(=O)(O)OC[C@H]3O[C@@H](n4cnc5c(N)ncnc54)[C@H](O)[C@@H]3O)[C@@H](O)[C@H]2O)C=CC1` [NADH], the “reduction of MRF followed at 460 nm, anaerobic” value in assay [1] was “measured at multiple MRF concentrations in the presence of saturating NADH”.
`[S]1[Fe][S][Fe]1` [[2Fe–2S] cluster]: the “optical absorption spectrum of purified protein” value in assay [2] was “Expression and purification of HRF following the same protocol resulted in similar purity and [2Fe–2S]”.
